Columns and labels:
Test in all cases: Bliss excess, mean over the matrix (fraction); higher = more synergy
[1] = system: EN (Endometrial Carcinoma)
Procedure, shortened: (§1)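 Bliss excess equals the observed combination effect minus the expected value EA + EB − EA·EB, where EA and EB are the effects of each agent alone. Combination Emax is the second-highest inhibition within the matrix. Inhibition was scaled from CellTiter-Glo 2.0 luminescence, with 0 set by vehicle wells and 1 by blank wells, after 72 hours of two-drug dosing of cells plated in 1536-well plates.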

[2] = system: HO-1-u-1 (Oral Cavity Carcinoma)
Procedure, shortened: as §1

[3] = system: K5 (Thyroid Gland Carcinoma)
Procedure, shortened: as §1

[4] = system: NCI-H2461 (Mesothelioma)
Procedure, shortened: as §1

[5] = system: NCI-H2795 (Mesothelioma)
Procedure, shortened: as §1

[6] = system: PCI-30 (Head and Neck Carcinoma)
Procedure, shortened: as §1

[7] = system: SW1116 (Colorectal Carcinoma)
Procedure, shortened: as §1

[8] = system: SW1271 (Small Cell Lung Carcinoma)
Procedure, shortened: as §1

SMILES | Bliss excess [1] | Bliss excess [2] | Bliss excess [3] | Bliss excess [4] | Bliss excess [5] | Bliss excess [6] | Bliss excess [7] | Bliss excess [8]
C=CCn1c(=O)c2cnc(Nc3ccc(N4CCN(C)CC4)cc3)nc2n1-c1cccc(C(C)(C)O)n1 [AZD1775] + CCc1c2c(nc3ccc(O)cc13)-c1cc3c(c(=O)n1C2)COC(=O)[C@]3(O)CC [SN-38] (first compound max 1 µM, partner max 0.3 µM) | 0.0209 | 0.0391 | -0.0219 | -0.1 | -0.0951 | 0.0013 | -0.0987 | -0.0391
CC1(C)CCC(CN2CCN(c3ccc(C(=O)NS(=O)(=O)c4ccc(NCC5CCOCC5)c([N+](=O)[O-])c4)c(Oc4cnc5[nH]ccc5c4)c3)CC2)=C(c2ccc(Cl)cc2)C1 [Venetoclax] + C1CN(CCC1(C(=O)N[C@@H](CCO)C2=CC=C(C=C2)Cl)N)C3=NC=NC4=C3C=CN4 [Capivasertib] (first compound max 1 µM, 7x7, partner max 3 µM) | -0.0656 | -0.052 | -0.0618 | -0.0184 | -0.111 | -0.0216 | -0.0491 | -0.105
NC1(C(=O)N[C@@H](CCO)c2ccc(Cl)cc2)CCN(c2ncnc3[nH]ccc23)CC1 [Capivasertib] + CC(=O)c1c(C)c2cnc(Nc3ccc(N4CCNCC4)cn3)nc2n(C2CCCC2)c1=O [Palbociclib] (first compound max 10 µM, 7x7, partner max 10 µM) | -0.0165 | -0.0234 | -0.0106 | -0.0609 | 0.0247 | -0.0554 | -0.0297 | 0.043
COc1nnc2ccc(N3CCC(c4ccc(OCCN5CCN(C)C(=O)[C@H]5C)cc4)CC3)nn12 [AZD5153] + Cc1c2c(nn1C)CSCc1cc(n(C)n1)CSc1cc(c3ccccc3c1)OCCCc1c(C(=O)O)n(C)c3c-2c(Cl)ccc13 [AZD5991] (first compound max 1 µM, 7x7, partner max 1 µM) | 0.0144 | -0.0055 | -0.0635 | -0.0189 | 0.0103 | -0.0218 | 0.0091 | -0.0242
COc1nnc2ccc(N3CCC(c4ccc(OCCN5CCN(C)C(=O)[C@H]5C)cc4)CC3)nn12 [AZD5153] + Cn1cnc2c(F)c(Nc3ccc(Br)cc3Cl)c(C(=O)NOCCO)cc21 [Selumetinib] (first compound max 1 µM, 7x7, partner max 10 µM) | 0.023 | 0.0747 | -0.0937 | -0.0415 | -0.03 | -0.0426 | 0.0036 | -0.0034
NC1(C(=O)N[C@@H](CCO)c2ccc(Cl)cc2)CCN(c2ncnc3[nH]ccc23)CC1 [Capivasertib] + COc1nnc2ccc(N3CCC(c4ccc(OCCN5CCN(C)C(=O)[C@H]5C)cc4)CC3)nn12 [AZD5153] (first compound max 10 µM, 7x7, partner max 1 µM) | 0.0304 | 0.0041 | 0.0159 | -0.0007 | -0.0197 | 0.0406 | -0.0236 | 0.0529
CN(CCO)CC[C@H](CSc1ccccc1)Nc1ccc(S(=O)(=O)NC(=O)c2ccc(N3CCC([C@@H](O)c4ccccc4-c4ccc(Cl)cc4)CC3)cc2)cc1S(=O)(=O)C(F)(F)F [AZD4320] + Cn1cnc2c(F)c(Nc3ccc(Br)cc3Cl)c(C(=O)NOCCO)cc21 [Selumetinib] (first compound max 1 µM, 7x7, partner max 3 µM) | -0.0088 | 0.0328 | -0.0637 | 0.0248 | -0.02 | 0.0023 | 0.0737 | 0.0306
CC(=O)c1c(C)c2cnc(Nc3ccc(N4CCNCC4)cn3)nc2n(C2CCCC2)c1=O [Palbociclib] + Cn1cnc2c(F)c(Nc3ccc(Br)cc3Cl)c(C(=O)NOCCO)cc21 [Selumetinib] (first compound max 10 µM, 7x7, partner max 10 µM) | -0.0205 | 0.0772 | -0.0341 | -0.0034 | -0.0173 | -0.0814 | -0.0189 | -0.0417
Cn1cnc2c(F)c(Nc3ccc(Br)cc3Cl)c(C(=O)NOCCO)cc21 [Selumetinib] + C[C@@H]1COCCN1C2=NC(=NC(=C2)C3(CC3)[S@](=N)(=O)C)C4=C5C=CNC5=NC=C4 [AZD6738] (first compound max 10 µM, 7x7, partner max 10 µM) | -0.0228 | 0.014 | 0.045 | -0.026 | -0.0239 | -0.0327 | -0.0148 | 0.0072
Cn1cnc2c(F)c(Nc3ccc(Br)cc3Cl)c(C(=O)NOCCO)cc21 [Selumetinib] + C=CCn1c(=O)c2cnc(Nc3ccc(N4CCN(C)CC4)cc3)nc2n1-c1cccc(C(C)(C)O)n1 [AZD1775] (first compound max 10 µM, partner max 1 µM) | -0.126 | 0.0454 | -0.0375 | -0.0676 | -0.0298 | -0.0183 | -0.0031 | -0.0806
NC1(C(=O)N[C@@H](CCO)c2ccc(Cl)cc2)CCN(c2ncnc3[nH]ccc23)CC1 [Capivasertib] + CCN(CCO)CCCOc1ccc2c(Nc3cc(CC(=O)Nc4cccc(F)c4)[nH]n3)ncnc2c1 [AZD2811] (first compound max 10 µM, 7x7, partner max 1 µM) | -0.0464 | -0.0122 | -0.0379 | -0.0811 | 0.0267 | -0.0595 | -0.0435 | -0.0113
